Experimental data as given in patent US20130331331A1, “HEXAPEPTIDE WITH IMPROVED ACTIVITY IN THE REPAIR OF CELLULAR DNA OF DERMAL CELLS” (priority 2011, published 2013).
Non-standard residues stand in square brackets, D forms with d. Nle = CCCC[C@H](N)C(=O)O

Legend:
Format in all cases: cell-based, human
[1] = system: melanocyte strain 102b; test: Tyrosinase activity dose-response, strain 102b; conditions: subnanomolar concentrations
Procedure: Cell numbers as well as tyrosinase activity were then determined. Tyrosinase activity was calculated first at activity/10^6 cells, and then as % of control. […] The conditioned medium from each dish was collected to be assayed for tyrosinase activity, and the cell numbers were determined using a Coulter Counter. Triplicate dishes were included in each group, and duplicate samples from each dish were assayed for tyrosinase activity.

[2] = system: melanocytic strains 1563c and 102b; test: Ultrastructural visualization of DOPA-stained HM (electron microscopy); conditions: 0.1 nM or 1 nM CUV9900, 1 nM MSH
Procedure: With reference to FIGS. 14 and 15, two melanocytic strains, a lightly pigmented strain 1563c of FIG. 14 and strain 102b of FIG. 15 were plated in 4-well chamber slides and treated […] with either 0.1 nM or 1 nM CUV9900 or 1 nM MSH for a total of 6 days. Cells were processed for electron microscopy in the presence or absence of histochemical reaction with DOPA. Microtome sections were analyzed in a JEOL JEM-1230 transmission electron microscope and photomicrographs (15,000×) of the perinuclear area and dendrites were taken for each experimental group.

[3] = system: melanocyte strain 1513c; test: Tyrosinase activity as a measure of stability / residual effect, strain 1513c
Procedure: To determine the residual effect of CUV9900, as compared to NDP-MSH and α-MSH, on tyrosinase activity, melanocytes were treated with either CUV9900 or NDP-MSH at the concentrations previously described for a total of 3 days. Tyrosinase activity was measured at the end of the 3 days of treatment, and 2 and 4 days after maintenance of the melanocytes in the complete absence of any treatment.
With continued reference to FIGS. 7, 8 and 9, to determine the stability of CUV9900 versus that of NDP-MSH and α-MSH, melanocytes were treated with 1 nM of each peptide, namely with CUV9900, NDP-MSH and α-MSH, for a total of 6 days, or with 1 nM peptides that were incubated for 5 hours at 37° C. prior to addition to the cultures, every other day, for a total of 6 days. Tyrosinase activity was measured at the end of treatment. In the experiments, cell number represents the mean percent of control of 3 determinations/group±SE, and tyrosinase activity data represent the mean percent of control of 6 determinations±S.E. It should be noted that for the sake of reproducibility the experiment of strain 1513c of FIG. 9 was performed once more 6 months later than the experiment of FIG. 7.
Melanocytes were treated for 3 days with the designated concentrations of CUV9900, NDP-MSH, or MSH, then maintained in absence of peptides for 4 days. Tyrosinase activity was determined 3 days after treatment.
Comparison of stability of CUV9900, NDP-MSH and MSH was compared in 1513c, as shown in FIG. 7; the strain was treated for 6 days with 1 nM CUV9900, NDP-MSH or MSH with fresh medium and peptide replenished every 2 days. Melanocytes were treated according to the same experiment protocol but each peptide was incubated for 5-7 hours at 37 degrees Celsius. […] The assessment of tyrosinase was statistically different from control, as determined by ANOVA (p=<0.05).
Tyrosinase activity as a measure of stability is shown in Tables 4 to 6 below, wherein Table 4 is based on data derived from FIG. 7, Table 5 is based on data derived from FIG. 9, and Table 6 is based on data derived from FIG. 8: […]

[4] = system: melanocytic strain 103c; test: UV-induced generation of hydrogen peroxide (luminol), strain 103c; conditions: 1 nM, 105 mJ/cm^2 UV, 0, 30 and 45 minutes after irradiation
Text: With reference to FIGS. 10 and 11, melanocytes were irradiated with a bank of FS 20 lamps, with 75% emission in the UVB, and 25% emission in the UVA spectra, with peak emission at 313 nm wavelength. Any emission of UVC rays from the UV source (FS 20 lamps) was blocked by Kodacel filter. Prior to irradiation, the culture medium was replaced by PBS, which was removed after UV exposure, and fresh medium added.
Melanocytes were irradiated with 105 mJ/cm^2 UV, and treated immediately while in PBS with 0, 1 nM α-MSH or 1 nM CUV9900. Generation of hydrogen peroxide, representative of reactive oxygen species (ROS), was determined by measuring the luminescence of luminol at 0, 30, and 45 min after UV exposure. Triplicate dishes were included in each group, and duplicate samples from each dish were used for measurement of hydrogen peroxide at each time point. Each data point represents the mean of 6 determinations/group±S.E.
In the melanocytic strain 1505b of FIG. 10 and melanocytic strain 103c of FIG. 11, hydrogen peroxide generation was assessed at 0, 30 and 45 minutes after UV irradiation.

[5] = system: melanocyte strain 103c; test: UV-induced apoptosis by Annexin V staining, strain 103c; conditions: 1 nM, 4 days prior and 1 day following 105 mJ/cm^2 UV
Procedure: With reference to FIGS. 12 and 13, melanocytes were maintained for the duration of the experiment in medium lacking bovine pituitary extract (BPE) to determine the survival effect of α-MSH or its analogs in the absence of the anti-apoptotic effect of TPA. Melanocytes were treated with 0, 1 nM α-MSH, 1 μM Forskolin, or 1 nM NDP-MSH or CUV9900 for 4 days prior to, and 24 h after exposure to a dose of 105 mJ/cm^2 UV, then stained for Annexin Va staining. The data are represented as percent increase above control, with triplicate dishes included in each group.
Comparison of the effect of CUV9900, NDP-MSH and MSH on the UV-induced apoptosis were made in the melanocyte strains 103c and melanocyte strain 1513c of FIGS. 12 and 13, respectively. Both strains were treated with 1 nM CUV9900, NDP and MSH, respectively for 4 days prior and 1 day following irradiation. Floating as well as attached cells were harvested and stained for Annexin V, and analyzed by flow cytometry.

Tyrosinase activity, Mean ([3]; strain 1513c [1], 1 nM, mean of columns 1-3): 215.7 % of control
Tyrosinase activity, Mean [1 + 2] ([3]; strain 1513c, mean over experiments [1] and [2]): 284.2 % of control
Substance: Ac-Nle-Glu His-D-Phe-Arg-Trp-NH2 (Ac-[Nle]EH[dF]RW-NH2; SMILES CCCC[C@H](NC(C)=O)C(=O)N[C@@H](CCC(=O)O)C(=O)N[C@@H](Cc1c[nH]cn1)C(=O)N[C@H](Cc1ccccc1)C(=O)N[C@@H](CCCNC(=N)N)C(=O)N[C@@H](Cc1c[nH]c2ccccc12)C(N)=O) [CUV9900, hexapeptide alpha-MSH analogue]
stimulation of tyrosinase activity, comparison [1]: greater stimulation of tyrosinase activity than NDP-MSH
melanosomes and DOPA reactivity by electron microscopy [2]: increased mature (stage IV) melanosomes in the perinuclear area and more so in dendrites
tyrosinase activity, comparison in words ([3]; first experiment in strain 1513c (Table 4)): increased tyrosinase activity in comparison to Control and MSH, but marginally less than NDP-MSH
effect of incubating the peptide on its stimulation of tyrosinase activity ([3]; strain 1513c, 1 nM peptide incubated 5-7 hours at 37 degrees Celsius): no effect on its ability to stimulate tyrosinase activity
UV-induced hydrogen peroxide generation [4]: significant reduction of UV-induced hydrogen peroxide generation
anti-apoptotic effect (Annexin V), comparison [5]: equal anti-apoptotic effect than NDP-MSH
